Source: patent publication US20230144869A1, “METHODS FOR TREATING CYTOKINE RELEASE SYNDROME” (UNIVERSITY HEALTH NETWORK, priority 2020, published 2023)

Experiments:
[1] = test system: anti-CD3 antibody and anti-CD28 antibody-, PHA- or SEB-activated lymphocytes; assay: Proliferation of activated lymphocytes in PBMCs (3H-thymidine); type: cell-based, human; settings: PBMCs stimulated with anti-CD3 and anti-CD28 antibodies, 24 hours plus 18 hours labeling, FIG. 1B
Description: PBMCs (2×10^5 cells) were treated with either Compound 1 or DMSO, and anti-CD3 and anti-CD28 antibodies, PHA or SEB in RPMI 1640 medium containing 10% heat-inactivated FBS, 2-mercaptoethanol and penicillin-streptomycin antibiotics at 37° C., 5% CO2, and 100% humidity. After 24 hours, the cells were labeled with ^3H-thymidine for an additional 18 hours to measure lymphocyte proliferation by liquid scintillation counting. Proliferation of anti-CD3 antibody and anti-CD28 antibody-, PHA- or SEB-activated lymphocytes was inhibited by Compound 1 treatment, as shown in FIG. 1B. Similar data were obtained at 48 hours (data not shown). Data are representative of several independent experiments utilizing different PBMC samples, and are reported as the mean counts per minute (CPM)±standard deviation (SD) of duplicate wells.

resting CD14+ monocytes = assay: Viability of resting monocytes (annexin V / 7-AAD flow cytometry); type: cell-based, human; settings: 48 hours; FIG. 4
Description: (§1) CD3^+ T-cells and CD14^+ monocytes were purified from PBMCs using Human CD3 MicroBeads and Human CD14 MicroBeads, respectively (Miltenyi Biotech). Purified CD3^+ T-cells (2×10^5 cells) or CD14^+ monocytes (2×10^5 cells) were treated with either Compound 1 or DMSO in RPMI 1640 medium containing 10% heat-inactivated FBS, 2-mercaptoethanol and penicillin-streptomycin antibiotics at 37° C., 5% CO2, and 100% humidity. After 48 hours, the cells were stained with antibodies specific for the indicated cell subsets, and annexin V and 7-aminoactinomycin D (7-AAD) cell viability dyes for measurement by flow cytometry. […] Similar data were obtained at 24 and 72 hours (data not shown). Data are representative of several independent experiments utilizing different human PBMC samples, and are reported as the A decrease in percent viability of duplicate wells [mean±standard deviation (SD)].

unstimulated whole blood = assay: Whole blood cytokine release assay (CRA); type: cell-based; settings: whole blood diluted 4:1 with RPMI 1640, 4 hours; LEGENDplex Human Th Cytokine Panel
Description: The potential for cytokine release syndrome in patients treated with Compound 1 was evaluated using a whole blood cytokine release assay (CRA). Fresh whole blood from a healthy human donor was diluted 4:1 with RPMI 1640 medium and cultured for 4 hours in the presence of Compound 1 or DMSO. Lipopolysaccharide (LPS) (1 μg/mL) was used as a positive control. Cytokine levels in serum samples were determined by a LEGENDplex Human Th Cytokine Panel by manufacturer's instructions (BioLegend, Inc.). […] Data listed in Table 1 below are representative of several independent experiments, and are reported as the mean fold change for Compound 1 relative to the DMSO control of duplicate wells.

[2] = test system: CD4+ and CD8+ T-cells in peripheral blood mononuclear cells (PBMCs); assay: T-cell activation in stimulated PBMCs (activation markers by flow cytometry); type: cell-based, human; settings: PBMCs stimulated with anti-CD3 and anti-CD28 antibodies, PHA or SEB; 24 or 48 hours; FIG. 1A
[3] = test system: anti-CD3 antibody and anti-CD28 antibody-activated PBMCs; assay: Cytokine secretion by anti-CD3 and anti-CD28 antibody-activated PBMCs (LEGENDplex Human Th Cytokine Panel); type: cell-based; settings: culture supernatants after 24 hours; fold change relative to DMSO control; FIG. 3A
Description: PBMCs (2×10^5 cells) were treated with either Compound 1 or DMSO, and anti-CD3 and anti-CD28 antibodies in RPMI 1640 medium containing 10% heat-inactivated FBS, 2-mercaptoethanol and penicillin-streptomycin antibiotics at 37° C., 5% CO2, and 100% humidity. After 24 hours, cytokine levels in culture supernatants were determined by a LEGENDplex Human Th Cytokine Panel by manufacturer's instructions (BioLegend, Inc.).
In the presence of Compound 1, the level of all measured cytokines decreased, including IL-2, IL-6, IFNγ and TNFα. Data are representative of several independent experiments utilizing different human PBMC samples, and are reported as the fold change for Compound 1 relative to the DMSO control of duplicate wells.

[4] = test system: resting CD4+ and CD8+ T-cells; assay: Viability of resting T-cells (annexin V / 7-AAD flow cytometry); type: cell-based, human; settings: 48 hours; except at high concentrations (30 μM); FIG. 4
Description: as §1

[5] = test system: PBMCs (effector) with irradiated allogenic PBMCs (stimulator); assay: Allogenic mixed lymphocyte reaction (MLR); type: cell-based, human; settings: 4 days plus 18 hours labeling; FIG. 2A-2C
Description: The allogenic MLR is a cell proliferation assay where one population of lymphocytes (effector cells) is stimulated to proliferate by another genetically distinct population of lymphocytes (stimulator cells), which have been rendered non-proliferative. PBMCs [2×10^5 cells, effector (E) population] and irradiated (IR) allogenic PBMCs [1×10^5 cells, stimulator (S) population] were treated with either Compound 1 or DMSO in RPMI 1640 medium containing 10% heat-inactivated FBS, 2-mercaptoethanol and penicillin-streptomycin antibiotics at 37° C., 5% CO2, and 100% humidity. After 4 days, the cells were labeled with ^3H-thymidine for an additional 18 hours to measure lymphocyte proliferation by liquid scintillation counting. […] Multiple independent experiments utilizing different effector/stimulator pairs were conducted. Data are reported as the mean counts per minute (CPM)±standard deviation (SD) of triplicate wells.

[6] = test system: mouse primary cancer-associated fibroblasts (CAFs); assay: TGFβ production by primary cancer-associated fibroblasts (CAFs); type: cell-based; settings: after 3 days; fold change relative to DMSO control; FIG. 3B
Text: Cancer-associated fibroblasts (CAFs) are used as a model system to investigate TGFβ cytokine production. C57BL/6 mice were obtained from The Jackson Laboratory. The Institutional Animal Care and Use Committee of the University Health Network approved all animal procedures. CAFs were obtained from C57BL/6 mice by growing MC38-CEA mouse colon cancer xenografts subcutaneously in a conventional manner. When tumors reached a size of approximately 1000 mm^3 they were excised and disaggregated, and CAFs were isolated with a Tumor-Associated Fibroblast Isolation Kit (Miltenyi Biotec). Isolated CAFs were grown with a MesenCult Expansion Kit (STEMCELL Technologies, Inc.) at 37° C., 5% CO2, 3% O2, and 100% relative humidity. CAFs were seeded into a 96-well plate in DMEM medium containing 10% FBS 24 hours before treatment with either Compound 1 or DMSO. After 3 days, latent TGFβ was determined by a Mouse Latent TGFβ Legend Max kit by manufacturer's instructions (BioLegend, Inc.). Compound 1 inhibited TGFβ production by mouse primary CAFs. Data are representative of several independent experiments, and are reported as the fold change for Compound 1 relative to the DMSO control of duplicate wells.

[7] = test system: C57BL/6 mice immunized with MOG35-55 peptide; assay: Experimental autoimmune encephalomyelitis (EAE) model; type: in vivo, mouse; settings: 50 mg/kg PO QD during EAE induction; FIG. 5

| Compound | Lymphocyte proliferation (3H-thymidine, CPM) [1] | Viability of resting CD14+ monocytes (resting CD14+ monocytes) | Induction of cytokine levels predictive of cytokine release syndrome in vivo (unstimulated whole blood) | CD4+ and CD8+ T-cell activation (cell surface expression of CD25 and CD69, shedding of CD62L) [2] | Level of all measured cytokines, including IL-2, IL-6, IFNγ and TNFα [3] | Viability of resting CD4+ and CD8+ T-cells [4] | Lymphocyte proliferation in allogenic MLR (3H-thymidine, CPM) [5] | TGFβ production (latent TGFβ) [6] | EAE disease progression (clinical score) [7] |
| --- | --- | --- | --- | --- | --- | --- | --- | --- | --- |
| CN1CCN(c2ccc3nc(-c4c(N)c5ccsc5[nH]c4=O)[nH]c3c2)CC1 [Compound 1] | inhibited | dose-dependent loss of viability | did not induce | titratable inhibition | decreased | no significant effect | dose-dependent inhibition | inhibited | – |
| CN1CCN(c2ccc3nc(-c4c(N)c5sccc5[nH]c4=O)[nH]c3c2)CC1 [Compound 2] | – | – | – | – | – | – | – | – | blocks EAE disease progression |
